Assay results as given in patent US11247965B2 (VenatoRx Pharmaceuticals, Inc., priority 2017, dated 2022).

How the values were obtained:
[1] = tested on: HBV replication in HepAD38 cells; test: Anti-HBV activity in HepAD38 cells, extracellular HBV DNA by QPCR; type: cell-based, HBV (genotype D, serotype ayw); conditions: Hepatitis B virus, HePAD38, 168 h, read-out: Anti-HBV EC50, HepAD38 cells, extracellular HBV DNA by QPCR, 7 days of incubation
Method: The anti-HBV activity of the Capsid Assembly Modulators (CAMs) was evaluated in a cell based assay utilizing the human hepatoma cell line HepAD38 (Ladner, S K., et al., 1998). HepAD38 cells were derived from the parental line, HepG2, that were stably transfected with a construct containing an HBV genome (genotype D, serotype ayw) under the control of a tetracycline repressible CMV promoter. Upon removal of tetracycline, viral pre-genomic RNA (pgRNA) and mRNAs are expressed and infectious viral particles are assembled and secreted into the culture medium providing a reliable, robust system to measure multiple steps of the HBV life cycle. Disruption of capsid formation results in reduced levels of DNA-containing virus particles that are released into the culture supernatant. To quantify the effect of CAMs on HBV replication, we developed a sensitive QPCR-based assay that measures extracellular HBV DNA levels upon treatment of HepAD38 cells with various concentrations of test compounds.
HepAD38 cells were maintained in DMEM/F12 medium containing 10% FBS, 400 μg/mL G418 and 0.3 μg/mL tetracycline (tet+medium) to maintain repression of HBV replication. To evaluate each compound, HepAD38 cells were seeded into 24-well collagen coated culture plates (Corning BioCoat) at a density of 200,000 cells per well in 1 mL of tet+medium and allowed to adhere overnight at 37° C., 5% CO2 in a humidified incubator. The following day, test articles were subjected to half-logo serial dilutions, ranging from 30 μM to 10 nM, in 100% DMSO at 200× the desired final assay concentration. Tetracycline was removed from the cells by aspirating the tet+medium and washing the cells once with growth medium lacking tetracycline (tet-). Various concentrations of each compound were added to the appropriate wells (1:200 dilution) and the plates were returned to the incubator. Following 7 days of incubation, culture supernatants were harvested and HBV DNA levels were evaluated by QPCR and compared to the vehicle treated control wells (i.e. DMSO alone).
To quantify HBV DNA levels, cell culture supernatants were diluted 1:10 in sterile, nuclease-free water (Gibco). The diluted supernatants were subsequently added to a PCR master mix containing 1× Roche Light Cycler Master Mix, 0.5 μM forward primer, 0.5 μM reverse primer (Fwd:
0.2 μM Roche Universal Probe Library Probe 25. The volume was brought to 20 μL with nuclease-free water and amplification of the HBV target sequence was performed using a Roche LightCycler 480 QPCR instrument. PCR extended out to 45 cycles with each cycle consisting of a denaturation step at 95° C. for 10 sec., followed by an annealing step at 60° C. for 10 sec. and a brief extension step at 72° C. for 1 sec.
Extracellular HBV DNA levels, expressed in copies/mL, were determined by comparison to a standard curve (10^2-10^9 copies/mL) using the Roche LightCycler analysis software. These values were subsequently converted to percent inhibition of HBV replication by dividing the HBV DNA levels in the experimental samples with those obtained from the vehicle control (˜1-2×10^5 copies/mL). Potency, expressed as an EC50 (the effective concentration required to inhibit […] of HBV replication), was calculated from the dose-response curve using a 4-parameter non-linear regression analysis (GraphPad Prism). The nucleoside analog inhibitor entecavir was used as a positive control to validate each assay run. The EC50 value of entecavir in the HepAD38 assay was 0.5 nM, as previously reported in the literature.

[2] = In vitro cytotoxicity, MTT cell viability assay in HepG2 cells; type: cell-based; conditions: human, Cytotoxicity CC50
Method: To evaluate antiviral selectivity, the cytotoxic activity of each compound was determined using a standard cell viability assay performed on the parental HepG2 cell line. Cell viability was determined by measuring the conversion of 3-(4,5-dimethylthiazol-2-yl)-2,5-diphenyltetrazolium bromide (MTT) to the insoluble formazan salt crystal that occurs in live cells. Briefly, HepG2 cells were seeded in 96-well plates at a density of 20,000 cells per well in EMEM+10% FBS (complete growth medium) and allowed to adhere overnight in a 37° C., 5% CO2 humidified incubator. The next day, test agents were prepared by performing 8 half-log10 serial dilutions in 100% DMSO at 200× the final desired concentration in the assay. Compounds were tested over a range of concentrations from 30 μM to 1.0 nM in the assay. HepG2 cells were incubated in the presence of various concentrations of CAMs for 7 days in a 37° C., 5% CO2 humidified incubator. At the completion of the 7-day incubation period, MTT reagent was added to each well and the mixture was incubated for an additional 3-4 hours. At the completion of the incubation period, all wells were aspirated to remove the culture medium. The formazan crystals were solubilized from the cell monolayers with 100% DMSO. Plates were briefly mixed on an orbital shaker and absorbance was measured at 492 nm using a Perkin-Elmer EnVision multi-label plate reader. All absorbance values were converted to a percentage of the signal obtained from the vehicle treated controls. Absorbance values at 492 nm are directly proportional to the number of viable cells present in the sample. A CC50 value (cytotoxic concentration that results in loss of 50% cell viability) was calculated from the dose-response curve by 4-parameter, non-linear regression analysis using the GraphPad Prism software. The positive control compound, staurosporine, reduced the viability of HepG2 cells in a dose-dependent manner (CC50=100 nM).

SMILES	EC50 [1] [µM]	CC50 at 7 days [2] [µM]
Cc1cc(NC(=O)c2cn(C)c(C(F)(F)C(=O)NC(C)(C)C)c2C)ccc1F [Example 113, 5-(2-(tert-butylamino)-1,1-difluoro-2-oxoethyl)-N-(4-fluoro-3-methylphenyl)-1,4-dimethyl-1H-pyrrole-3-carboxamide]	< 5	> 30
Cc1cc(NC(=O)c2ccc(F)c(C(F)(F)C(=O)N3[C@@H]4CC[C@H]3C[C@H](N)C4)c2)ccc1F [Example 228, 3-(2-((1R,3s,5S)-3-amino-8-azabicyclo[3.2.1]octan-8-yl)-1,1-difluoro-2-oxoethyl)-4-fluoro-N-(4-fluoro-3-methylphenyl)benzamide]	< 5	5 to 30
Cc1cc(NC(=O)c2ccc(F)c(C(F)(F)C(=O)N3CCc4[nH]nnc4C3)c2)ccc1F [Example 270, 3-(1,1-difluoro-2-oxo-2-(1,4,6,7-tetrahydro-5H-[1,2,3]-triazolo[4,5-c]pyridin-5-yl)ethyl)-4-fluoro-N-(4-fluoro-3-methylphenyl)benzamide]	< 5	5 to 30
Cc1cc(NC(=O)c2cccc(C(F)(F)C(=O)N3[C@@H]4CC[C@H]3C[C@H](O)C4)c2F)ccc1F [Example 207, 3-(1,1-difluoro-2-((1R,3s,5S)-3-hydroxy-8-azabicyclo[3.2.1]octan-8-yl)-2-oxoethyl)-2-fluoro-N-(4-fluoro-3-methylphenyl)benzamide]	< 5	5 to 30
O=C(Nc1ccc(F)c(F)c1)c1ccc(F)c(C(F)(F)C(=O)N2CCC(CO)CC2)c1 [Example 48, 3-(1,1-difluoro-2-(4-(hydroxymethyl)piperidin-1-yl)-2-oxoethyl)-N-(3,4-difluorophenyl)-4-fluorobenzamide]	< 5	5 to 30
CC(=O)NC1CCN(C(=O)C(F)(F)c2nc(C(=O)Nc3ccc(F)c(C)c3)ccc2F)CC1(C)C (centres unmarked) [Example 305, 6-(2-(4-acetamido-3,3-dimethylpiperidin-1-yl)-1,1-difluoro-2-oxoethyl)-5-fluoro-N-(4-fluoro-3-methylphenyl)picolinamide]	< 5	5 to 30
Cc1cc(NC(=O)c2ccc(F)c(C(F)(F)C(=O)N3CCC(NC(=O)C4CCNC(=O)C4)CC3)c2)ccc1F (centres unmarked) [Example 233, N-(1-(2,2-difluoro-2-(2-fluoro-5-((4-fluoro-3-methylphenyl)carbamoyl)phenyl)acetyl)piperidin-4-yl)-2-oxopiperidine-4-carboxamide]	< 5	5 to 30
Cc1cc(NC(=O)c2cc(F)cc(C(F)(F)C(=O)N3[C@@H]4CC[C@H]3C[C@H](O)C4)c2)ccc1F [Example 219, 3-(1,1-difluoro-2-((1R,3s,5S)-3-hydroxy-8-azabicyclo[3.2.1]octan-8-yl)-2-oxoethyl)-5-fluoro-N-(4-fluoro-3-methylphenyl)benzamide]	5 to 30	5 to 30
CC(=O)NC1CCN(C(=O)C(F)(F)c2cc(C(=O)Nc3ccc(F)c(C)c3)ccc2F)CC1(C)C (centres unmarked) [Example 287, 3-(2-(4-acetamido-3,3-dimethylpiperidin-1-yl)-1,1-difluoro-2-oxoethyl)-4-fluoro-N-(4-fluoro-3-methylphenyl)benzamide]	< 5	5 to 30
Cc1cc(NC(=O)c2ccc(F)c(C(F)(F)C(=O)N3CCC(O)C(F)(F)C3)c2)ccc1F (centres unmarked) [Example 77, 3-(2-(3,3-difluoro-4-hydroxypiperidin-1-yl)-1,1-difluoro-2-oxoethyl)-4-fluoro-N-(4-fluoro-3-methylphenyl)benzamide]	< 5	5 to 30
Cc1cc(NC(=O)c2ccc([C@@H](O)CO)c(C(F)(F)C(=O)N3CCC(O)CC3)c2)ccc1F [Example 116, (R)-3-(1,1-difluoro-2-(4-hydroxypiperidin-1-yl)-2-oxoethyl)-4-(1,2-dihydroxyethyl)-N-(4-fluoro-3-methylphenyl)benzamide]	> 30	> 30
Cc1cc(NC(=O)c2csc(C(F)(F)C(=O)N3CCC(O)CC3)n2)ccc1F [Example 30, 2-(1,1-difluoro-2-(4-hydroxypiperidin-1-yl)-2-oxoethyl)-N-(4-fluoro-3-methylphenyl)thiazole-4-carboxamide]	5 to 30	5 to 30
Cc1cc(NC(=O)c2ccc(F)c(C(F)(F)C(=O)N3C[C@@H](C)N[C@@H](C)C3)c2)ccc1F [Example 296, 3-(2-((3R,5S)-3,5-dimethylpiperazin-1-yl)-1,1-difluoro-2-oxoethyl)-4-fluoro-N-(4-fluoro-3-methylphenyl)benzamide]	< 5	5 to 30
O=C(Nc1ccc(F)c(Br)c1)c1ccc(F)c(C(F)(F)C(=O)N2CCC(O)CC2)c1 [Example 87, N-(3-bromo-4-fluorophenyl)-3-(1,1-difluoro-2-(4-hydroxypiperidin-1-yl)-2-oxoethyl)-4-fluorobenzamide]	< 5	5 to 30
COc1ccccc1NC(=O)C(F)(F)c1cc(C(=O)Nc2ccc(F)c(F)c2)ccc1F [Example 21, 3-(1,1-difluoro-2-((2-methoxyphenyl)amino)-2-oxoethyl)-N-(3,4-difluorophenyl)-4-fluorobenzamide]	5 to 30	5 to 30
CC(C)(C)NC(=O)C(F)(F)c1cc(C(=O)Nc2ccc(F)c(F)c2)ccc1F [Example 18, 3-(2-(tert-butylamino)-1,1-difluoro-2-oxoethyl)-N-(3,4-difluorophenyl)-4-fluorobenzamide]	5 to 30	5 to 30
O=C(Nc1ccnc(Cl)c1)c1ccc(F)c(C(F)(F)C(=O)N2[C@@H]3CC[C@H]2C[C@@H](O)C3)c1 [Example 196, N-(2-chloropyridin-4-yl)-3-(1,1-difluoro-2-((1R,3r,5S)-3-hydroxy-8-azabicyclo[3.2.1]octan-8-yl)-2-oxoethyl)-4-fluorobenzamide]	< 5	< 5
Cc1cc(NC(=O)c2ccc(F)c(C(F)(F)C(=O)N3CCC(N)C(C)(C)C3)n2)ccc1F (centres unmarked) [Example 304, 6-(2-(4-amino-3,3-dimethylpiperidin-1-yl)-1,1-difluoro-2-oxoethyl)-5-fluoro-N-(4-fluoro-3-methylphenyl)picolinamide]	< 5	5 to 30
Cc1cc(NC(=O)c2ccc(F)c(C(F)(F)C(=O)N3CCC(N4CCOCC4)CC3)c2)ccc1F [Example 267, 3-(1,1-difluoro-2-(4-morpholinopiperidin-1-yl)-2-oxoethyl)-4-fluoro-N-(4-fluoro-3-methylphenyl)benzamide]	5 to 30	5 to 30
